Results as given in patent US20080288176A1 (priority 2005, published 2008).
Like-named read-outs stand apart in the source and are kept apart here.

Tests used:
[1] = Stability in intestinal lumen (decay rate); type: in vitro ADME
Source text: (§1) The physiologically based pharmacokinetic/pharmacodynamic model of the present invention contains a series of compartments that describe the time course of a nonsteroidal anti-inflammatory prodrug, its active metabolites and nitric oxide release in intestine, liver, kidneys, blood/plasma and heart after prodrug administration. The time course of the prodrug, its active metabolites and nitric oxide release can be simulated using a series of in vitro and in silico inputs. The stability of each component in the gastrointestinal lumen is estimated using data collected from artificial gastric and intestinal juice. Intestinal metabolism is estimated using intestinal microsomes and absorption rate is estimated using permeability data collected from a cell monolayer such as Caco-2. Hepatic elimination is estimated using liver microsomes and stability in plasma is calculated using degradation of each component in the media. Plasma protein binding can either be measured using a standardized in vitro method or it can be estimated using an in silico method. The distribution of each component in various parts of the body is estimated using an in silico method. The rate of nitric oxide release is estimated using an in vitro endothelial cell model. The time course of prodrug, its active metabolites and nitric oxide can be simulated in human and animal using this physiologically based pharmacokinetic/pharmacodynamic model provided that the corresponding in vitro and in silico data are used as inputs.
(§2) Representative in vitro tests or in silico estimates include: (a) pKa estimation or measurement; (b) Log P measurement or in silico estimation; (c) Solubility in various physiological fluids; (d) Permeability. Caco-2 and/or NOVOKIN's proprietary animal and human cell lines can be used to obtain this parameter; (e) Metabolic rate in the intestine and liver. Human or animal intestinal microsomes, S9 fraction, and cytosol can be used for this purpose. Human or animal hepatocytes, liver microsomes, S9 fraction, and cytosol can also be used; (f) Hydrolysis in human or animal plasma; (g) Serum or plasma protein binding. It can be measured in vitro or estimated in silico; (h) The rate of NO release; (i) Existing pharmacokinetic and pharmacodynamic data of NSAID or a biocompatible agent; (j) Existing NO release rate of known diazeniumdiolate if applicable; (k) Stability in gastric and intestinal environment; and (l) In silico volume of distribution estimation.

[2] = Stability in gastric environment (gastric decay rate); type: in vitro ADME
Source text: as §1, §2

[3] = Hydrolysis in rat liver microsomes; type: in vitro ADME
Source text: as §1, §2
(§3) Whenever in vitro estimate is attainable, the in vitro results will be used, for example, plasma protein binding. Methods reported by Bowalgaha & Miners (2001), Martignoni et al. (2006), Tong et al. (2001) and Thulesen et al. (1999) were used for in vitro and in vivo scale-up for clearance in the intestine, absorption rate constant and hepatic clearance. The simulation begins with no material in all compartments except for the initial bolus in one compartment (typically the stomach compartment). The simulation then estimates the changing distribution of the material with time.

[4] = Hydrolysis in rat plasma; type: in vitro ADME; conditions: NO-AA formed from the prodrug
Source text: as §1, §2

[5] = Hydrolysis in various enzymatic preparations (rat and human intestinal and liver microsomes)
[6] = Hydrolysis in human intestinal microsomes; type: in vitro ADME
Source text: as §1
The selection of in vitro tests is designed to provide parameters for the above mentioned model. The use of an inappropriate test would result in wrong predictions. For example, Knaus et al. (2005) used guinea pig serum and porcine esterases to hydrolyze their O^2-substituted diazeniumdiolate derivatives of ASPIRIN, as disclosed in U.S. Ser. No. 60/681,842. These tests provided very little information in terms of in vivo human NO-NSAID metabolism rate and the extent to which metabolic conversion to NO donor and NSAID occurred. […] The half-life values were less than one minute. Based on these observations, it has become apparent that prior to entering the systemic circulation, it is likely that the NO-NSAID would have been hydrolyzed in the enterocytes and little or no NO-NSAID would have been detected in the blood stream. Furthermore, the release of NO will commence immediately once the NO donor is detached from the NSAID.
as §2, §3

[7] = Hydrolysis in rat intestinal microsomes; type: in vitro ADME
Source text: as §1, §2, §3

[8] = Hydrolysis in human liver microsomes; type: in vitro ADME
Source text: as §1, with “The” for “The physiologically based pharmacokinetic/pharmacodynamic model of the present invention contains a series of compartments that describe the time course of a nonsteroidal anti-inflammatory prodrug, its active metabolites and nitric oxide release in intestine, liver, kidneys, blood/plasma and heart after prodrug administration. The”
The selection of in vitro tests is designed to provide parameters for the above mentioned model. The use of an inappropriate test would result in wrong predictions.
as §2
The simulation begins with no material in all compartments except for the initial bolus in one compartment (typically the stomach compartment). The simulation then estimates the changing distribution of the material with time.

[9] = Enzymatic hydrolysis in liver microsomal preparations (LC-MS); type: in vitro ADME; conditions: liver microsomal preparations
Protocol: (§4) The sensitivity of the prodrug 3 towards enzymatic hydrolysis was evaluated by LC-MS. Liver and intestinal microsomal preparations were used. […] However, these rates were slower than the enzymatic hydrolysis rates determined for the conversion of 1→4 and 2→5 (complete hydrolysis observed in 10 and 30 minutes respectively in liver microsomal preparations).

[10] = Chemical stability (loss of diazeniumdiolate) in phosphate buffer; type: physicochemical
Protocol: They varied only in the nitrogen substituent of the amino acid, i.e. free amine (1), acetyl (2) and pivaloyl (3) groups. Their chemical stability was evaluated in phosphate buffer at different pH's over a 30 minute period (Table 11).

[11] = Enzymatic hydrolysis in intestinal microsomal preparations (LC-MS); type: in vitro ADME; conditions: after 2 hours
Protocol: as §4

[12] = tested on: male Wistar rats; experiment: Gastric ulcer index after oral dosing; type: in vivo, rat
Protocol: (§5) Table 1 is a summary of the protocol for a study which was conducted in male Wistar rats weighing 275-300 grams. The animals were allowed to acclimatize for at least five days prior to the commencement of the study. The study protocol was approved by the local animal ethics committee.
(§6) The animals were fasted overnight prior to test substance administration. The test substance was administered orally by gavage on the morning of the study day. All test animals had blood collected during the test period in both EDTA (ethylenediaminetetraacetic acid) tubes and SST (Serum Separator Tubes) at 1, 3 and 6 hours after dosing. Blood was collected into EDTA tubes only at 1 and 3 hours by tail tip amputation. Volume of blood collected was between 0.5 and 1 mL at each of these collections. The final collection was by puncture of the abdominal vena cava under isoflurane general anesthesia. Final blood collection was targeted as follows: 1st EDTA #1—1.5 mL; 2nd SST—1.5 mL; 3rd EDTA #2—as much as possible.
Each animal from all groups underwent a full necropsy under the supervision of a board certified veterinary pathologist. The stomach of each rat was cut along the greater curvature, contents removed into a polypropylene (Falcon) tube, the mucosa rinsed with saline and any obvious ulcers or erosions were measured along the longest axis. This measurement was recorded for each ulcer or erosion observed in each stomach. The falcon tubes and their contents were frozen at −80° C. and shipped to Novokin on dry ice for analysis.
The aggregate length of all gastric ulcers found in a given animal was calculated. The mean aggregate ulcer length across animals in a group was calculated. This mean value was reported as the ulcer index for that group.
The ulcer index of each modified drug was compared with the ulcer index of its associated parent drug and the controls using analysis of variance and Duncan's multiple range test for pairwise comparisons. Statistical analysis was done using SAS® (SAS Institute Inc., Cary, N.C.).

[13] = tested on: cardiac tissue prostacyclin (PGI2) to thromboxane A2 (TXB2) ratio; experiment: Cardiac tissue prostacyclin to thromboxane ratio; type: in vivo, rat; conditions: male Wistar rats
Source text: (§7) Myocardial infarction and ischemic events in high risk patients led one of the most popular COX-2 inhibitors to its demise (Bresalier et al., 2005). Non-selective NSAIDS may also cause similar problems due to their ability to inhibit COX-2. […] Adenosine diphosphate (ADP) generation is an indicator of myocardial infarction which has no connection with the arachidonic acid cascade (Borna et al., 2005). […] Long term NSAID use has been linked to kidney damage and hypertension (Zafirovska et al., 1993). […] This was associated with an increase in the urine the ratio of alanine-amino-peptidase (AAP) and creatinine.
as §5
All rats were euthanized by removal of the heart 6 hours after initial dosing, following final blood collections. Immediately after terminal blood collections were complete, the thorax was opened and the heart removed. The heart was cut in half longitudinally. Half of the heart was placed in formalin for histological examination. The other half was quickly rinsed in saline and then freeze-clamped (crushed between the jaws of a pair of modified tongs, cooled by liquid nitrogen). An entire kidney was freeze-clamped. The other kidney was left in situ for examination by the pathologist. Freeze-clamped tissues were wrapped in labeled aluminum foil and stored in liquid nitrogen until they could be transferred to a −80° C. freezer. Freeze-clamped tissues were shipped on dry ice to NOVOKIN for analysis.

[14] = tested on: male Wistar rats; experiment: Urine alanine aminopeptidase to creatinine ratio (proximal tubular kidney damage); type: in vivo, rat; conditions: oral gavage, urine collected for 6 hours
Source text: as §7, §5
(§8) All test animals, housed in metabolic cages, had urine collected over wet ice for 6 hours after dosing. Aliquots of the urine from each animal were collected to determine creatinine concentration. The remainder of the urine was centrifuged at 1000 g for 10 minutes. The supernatant was collected and mixed with analytical grade ethylene glycol at a rate of 0.4 mL ethylene glycol per 1 mL urine supernatant. The ethylene glycol/urine mixture was stored at −80° C. until analysis.

[15] = Human; estimated from Table II - Runkle, 1972; cited from earlier work
[16] = Serum nitrate concentration (NO release) after oral dosing; type: in vivo, rat; conditions: male Wistar rats, oral gavage, at 6 hours
Protocol: as §5, §6
EDTA samples were centrifuged, and the plasma portion was collected and frozen at −80° C. SST samples were incubated at 37° C. for approximately 45 minutes, centrifuged, and the serum was collected and frozen at −80° C. until analysis.

[17] = Rat; estimated from Table II - Runkle, 1972; cited from earlier work
[18] = tested on: male Wistar rats; experiment: Urine N-acetylglucosaminidase to creatinine ratio (distal tubule toxicity); type: in vivo, rat; conditions: oral gavage, urine collected for 6 hours
Protocol: as §5, §8

## COc1ccc2cc(C(C)C(=O)OCOC(=O)C(CCC(=O)OCON=[N+]([O-])N(C)C)NC(=O)C(C)(C)C)ccc2c1 (stereo not shown) [CMD 114]
[1]; Human
  intestinal lumen decay rate constant: 0.67 min⁻¹
[1]; Rat
  intestinal lumen decay rate constant: 0.67 min⁻¹
[2]; Human
  gastric decay rate constant: 0 /mint
[2]; Rat
  gastric decay rate constant: 0 /mint
[3]
  liver molar percent conversion to Naproxen: 60%
[3]; model input
  liver microsomal activity: 7667 mL/min/organ
[4]
  Hydrolysis of the NO-AA in rat plasma (in words): relatively fast rate
[4]; Rat
  NO-AA half-life in plasma: 3.8 min
[5]; intestinal and liver microsomes of human and rats
  Stability of the NO-AA formed (in words): relatively stable
[5]; various enzymatic preparations
  Initial loss of the prodrug candidate (in words): rapid initial loss
[6]
  intestinal molar percent conversion to Naproxen: 78%
[6]; model input
  intestinal microsomal activity: 5006 mL/min/organ
[7]
  intestinal molar percent conversion to Naproxen: 42%
[7]; model input
  intestinal microsomal activity: 9 mL/min/organ
[8]
  liver molar percent conversion to Naproxen: 50%
[8]; model input
  liver microsomal activity: 721224 mL/min/organ

## COc1ccc2cc(C(C)C(=O)OC3CC(C(=O)OCO/N=[N+](\[O-])N(C)C)N(C(=O)C(C)(C)C)C3)ccc2c1 (stereo not shown) [Compound 3]
[9]
  Time to complete hydrolysis (cleavage of the diazeniumdiolate): 2 h
[10]; 30 min, pH 2.5
  Stability (loss of diazeniumdiolate), pH 2.5: ✓
[10]; 30 min, pH 5.0
  Stability (loss of diazeniumdiolate), pH 5.0: ✓
[10]; 30 min, pH 7.0
  Stability (loss of diazeniumdiolate), pH 7.0: ✓
[10]; pH range 2.5-7.0, 30 minute period
  Chemical stability (in words): stable
[11]
  Conversion to NSAID-amino acid (cleavage of the diazeniumdiolate): 50%

## COc1ccc2cc([C@H](C)C(=O)O)ccc2c1 [NAP, naproxen]
[12]; oral gavage, naproxen 250 mg/kg or molar equivalent (ROF 250 mg/kg), 6 h after dosing, mean aggregate gastric ulcer length
  Ulcer Indices, Mean: 4.282
[12]; oral, 6 h
  Ulcerogenicity (in words): severely ulcerogenic
[13]; cardiac tissue
  PGI2 and TXA2 levels (in words): lowered both PGI2 and TXA2 levels
[13]; oral gavage, heart removed 6 hours after dosing
  Cardiac Tissue PGI2/TXB2, Mean: 4.544
[14]
  AAP/Cr (urine alanine aminopeptidase to creatinine), Mean: 263.788
[15]
  liver microsomal activity: 0.0092 mL/min/organ
[16]
  Serum Nitrate Concentrations, Mean: 55.167
[17]
  liver microsomal activity: 0.0075 mL/min/organ
[18]
  Urine NAG/Cr values, Mean: 30.865
